Measurements from the supplement of paper PMC10307832.

Columns and labels:
Assay in all cases: relative viability (nuclei count vs DMSO), 5 days (fraction); higher = more cells survive
Selisistat + Lapatinib = compound: C1CC(C2=C(C1)C3=C(N2)C=CC(=C3)Cl)C(=O)N [Selisistat] + CS(=O)(=O)CCNCc1ccc(-c2ccc3ncnc(Nc4ccc(OCc5cccc(F)c5)c(Cl)c4)c3c2)o1 [Lapatinib] (partner 2 µM)
How it was run: (§1)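 A single step with final 0.05% Triton X-100, 1% formaldehyde and 1 ug/ml Hoechst fixed the cells and stained nuclei 5 days after treatment. Lung cancer cell lines in 1536-well plates had been treated by pin tool the day after seeding with one drug alone or a fixed anchor-drug dose plus five library-drug doses (not always all listed) in √10 steps, and nuclei were counted on 4× images. Relative viability is the ratio of nuclei in treated wells to nuclei in vehicle wells, taken as the median of duplicate plates.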

Selisistat + Olaparib = compound: C1CC(C2=C(C1)C3=C(N2)C=CC(=C3)Cl)C(=O)N [Selisistat] + O=C(c1cc(Cc2n[nH]c(=O)c3ccccc23)ccc1F)N1CCN(C(=O)C2CC2)CC1 [Olaparib] (partner 8 µM)
How it was run: as §1

Serdemetan + Tozasertib = compound: c1ccc2c(CCNc3ccc(Nc4ccncc4)cc3)c[nH]c2c1 [Serdemetan] + Cc1cc(Nc2cc(N3CCN(C)CC3)nc(Sc3ccc(NC(=O)C4CC4)cc3)n2)n[nH]1 [Tozasertib] (partner 0.1 µM)
How it was run: as §1

Serdemetan + Decitabine = compound: c1ccc2c(CCNc3ccc(Nc4ccncc4)cc3)c[nH]c2c1 [Serdemetan] + Nc1ncn([C@H]2C[C@H](O)[C@@H](CO)O2)c(=O)n1 [Decitabine] (partner 2 µM)
How it was run: as §1

| Cell Line | relative viability (Selisistat + Lapatinib; first compound 0.4 µM) | relative viability (Selisistat + Lapatinib; first compound 1.265 µM) | relative viability (Selisistat + Lapatinib; first compound 4 µM) | relative viability (Selisistat + Lapatinib; first compound 12.65 µM) | relative viability (Selisistat + Lapatinib; first compound 40 µM) | relative viability (Selisistat + Olaparib; first compound 0.4 µM) | relative viability (Selisistat + Olaparib; first compound 1.265 µM) | relative viability (Selisistat + Olaparib; first compound 4 µM) | relative viability (Selisistat + Olaparib; first compound 12.65 µM) | relative viability (Selisistat + Olaparib; first compound 40 µM) | relative viability (Serdemetan + Tozasertib; first compound 0.04 µM) | relative viability (Serdemetan + Tozasertib; first compound 0.1265 µM) | relative viability (Serdemetan + Tozasertib; first compound 0.4 µM) | relative viability (Serdemetan + Tozasertib; first compound 1.265 µM) | relative viability (Serdemetan + Tozasertib; first compound 4 µM) | relative viability (Serdemetan + Decitabine; first compound 0.04 µM) | relative viability (Serdemetan + Decitabine; first compound 0.1265 µM) | relative viability (Serdemetan + Decitabine; first compound 0.4 µM) | relative viability (Serdemetan + Decitabine; first compound 1.265 µM) | relative viability (Serdemetan + Decitabine; first compound 4 µM) |
| --- | --- | --- | --- | --- | --- | --- | --- | --- | --- | --- | --- | --- | --- | --- | --- | --- | --- | --- | --- | --- |
| HCC-78 | 0.811 | 0.891 | 0.448 | 0.589 | 0.658 | 0.893 | 0.795 | 0.82 | 0.833 | 0.88 | 0.414 | 0.354 | 0.363 | 0.329 | 0.303 | 0.659 | 0.718 | 0.698 | 0.638 | 0.525 |
| HCC-366 | 1.09 | 0.977 | 0.899 | 0.971 | 1.07 | 0.306 | 0.344 | 0.359 | 0.364 | 0.387 | 0.134 | 0.0681 | 0.0532 | 0.0456 | 0.042 | 0.209 | 0.154 | 0.0922 | 0.0502 | 0.0773 |
| HCC-827 | 0.192 | 0.189 | 0.203 | 0.182 | 0.186 | 0.678 | 0.741 | 0.672 | 0.647 | 0.627 | 0.406 | 0.393 |  | 0.297 | 0.308 | 0.371 | 0.243 |  | 0.263 | 0.305 |
| HOP-62 | 0.974 | 1.03 | 0.96 | 0.884 | 1.14 | 0.394 | 0.422 | 0.419 | 0.432 | 0.73 | 0.421 | 0.323 | 0.322 | 0.328 | 0.245 | 0.195 | 0.256 | 0.22 | 0.196 | 0.177 |
| IA-LM | 0.723 | 0.931 | 0.817 |  | 0.894 | 0.899 | 0.897 | 0.849 | 0.802 | 0.806 |  |  |  |  |  |  |  |  |  |  |
| LC-2-ad | 1.01 | 0.968 | 0.803 | 0.833 | 1.04 | 0.801 | 0.69 | 0.717 | 0.633 | 0.71 | 0.397 | 0.487 | 0.459 | 0.461 | 0.385 | 0.795 | 0.727 | 0.679 | 0.714 | 0.634 |
| LCLC-97TM1 | 0.779 | 1.12 | 0.86 | 0.928 | 1.32 | 0.488 | 0.304 |  | 0.285 | 0.366 | 0.256 | 0.202 | 0.235 |  | 0.169 | 0.232 | 0.213 | 0.239 | 0.175 | 0.165 |
| LCLC-103H |  |  |  |  |  | 0.814 | 0.798 | 0.78 | 0.724 | 0.833 | 0.611 | 0.605 | 0.502 | 0.448 | 0.402 | 0.73 | 0.663 | 0.426 | 0.587 | 0.687 |
| LK-2 | 0.858 | 0.749 | 0.701 | 0.935 | 1.05 | 0.721 | 0.652 | 0.675 | 0.588 | 0.782 | 0.171 | 0.176 | 0.194 | 0.207 | 0.168 | 0.37 | 0.29 | 0.274 | 0.223 | 0.283 |
| LOU-NH91 | 0.753 | 0.741 | 0.741 | 0.762 | 0.758 | 0.936 | 0.867 | 0.914 | 0.895 | 0.899 | 0.692 | 0.654 | 0.442 | 0.509 | 0.684 | 0.813 | 0.845 |  |  | 0.872 |
| LU99A | 1.06 | 0.913 | 1.06 | 0.914 | 0.962 | 0.24 | 0.248 | 0.307 | 0.255 | 0.251 | 0.321 | 0.297 | 0.265 | 0.183 | 0.185 | 0.943 | 0.84 | 0.775 | 0.419 | 0.277 |
| NCI-H441 |  |  |  |  |  | 0.49 | 0.51 | 0.582 | 0.504 | 0.534 | 0.719 | 0.669 | 0.687 | 0.709 | 0.605 | 0.256 | 0.22 | 0.249 | 0.219 | 0.172 |
| NCI-H522 |  |  |  |  |  | 0.574 | 0.766 | 0.634 | 0.553 | 0.519 | 0.554 | 0.575 | 0.44 |  | 0.497 | 0.677 | 0.775 | 0.68 | 0.691 | 0.613 |
| NCI-H1299 | 0.967 | 0.947 | 0.961 | 0.991 | 0.964 | 1.04 | 0.972 | 1 | 1.03 | 1.02 |  |  |  |  |  |  |  |  |  |  |
| NCI-H1563 | 1.03 | 0.95 | 0.881 | 0.825 | 0.921 |  |  |  |  |  |  |  |  |  |  |  |  |  |  |  |
| NCI-H1623 |  |  |  |  |  |  |  |  |  |  | 0.421 | 0.517 | 0.349 | 0.385 | 0.399 |  |  |  |  |  |
| NCI-H1648 |  |  |  |  |  | 0.878 | 0.792 |  | 0.918 | 1.2 |  | 0.46 | 0.38 | 0.206 | 0.299 |  | 0.533 | 0.424 | 0.3 | 0.302 |
| NCI-H1703 | 1.1 | 1.06 | 1.12 | 1.05 | 1.05 | 0.416 | 0.425 | 0.362 | 0.42 | 0.433 |  |  |  |  |  |  |  |  |  |  |
| NCI-H1792 | 0.917 | 0.89 |  | 0.829 | 0.926 | 0.47 | 0.403 |  | 0.479 | 0.442 |  |  |  |  |  | 0.429 | 0.459 | 0.417 | 0.327 | 0.176 |
| NCI-H2228 | 0.99 | 1.2 | 1.31 | 0.868 | 1.07 | 0.637 | 0.656 | 0.523 | 0.741 | 0.702 | 0.267 | 0.246 | 0.371 | 0.128 | 0.162 |  |  |  |  |  |
| NCI-H2342 |  |  |  |  |  | 0.4 | 0.397 | 0.468 | 0.475 | 0.461 | 0.607 | 0.553 | 0.605 | 0.493 | 0.408 | 0.753 | 0.776 | 0.643 | 0.531 | 0.475 |
| SW 900 |  |  |  |  |  | 0.905 | 0.914 | 0.941 | 0.833 | 0.862 | 0.494 | 0.413 | 0.441 | 0.329 | 0.359 | 0.398 | 0.473 | 0.433 | 0.331 | 0.284 |
